Experimental data taken from US12691070B2, “Cationic lipids and preparation method thereof” (RiboX Therapeutics HK Limited, priority 2023, dated 2026).

Experiments:
[1] = LNP size and polydispersity index (PDI) by dynamic light scattering; type: physicochemical; conditions: for Size: in nm (unit assumed)
How it was run: (§1)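 LNPs of ionizable lipid/DSPC/cholesterol/DMG-PEG 2000 (50:10:38.5:1.5) made by microfluidic mixing of luciferase circRNA or mRNA in pH 4.5 acetate with lipids in ethanol (3:1, 12 ml/min), ionizable lipid:nucleotide 15 or 6, then dialyzed against PBS. Size, PDI (DLS) and zeta potential on Zetasizer; encapsulation by Ribogreen ± Triton X-100.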

[2] = system: RAW 264.7 cells; test: In vitro toxicity (CellTiter-Glo cell viability), RAW 264.7; type: cell-based;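 note: percent of untreated cells luminescence signal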
How it was run: (§2)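 Cells were transfected with RNA-LNPs at 1 μg/mL and, 72 hours later, viability was measured by CellTiter-Glo luminescence. Values are cell viability calculated from the luminescence signal.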

[3] = LNP zeta potential (Zetasizer); type: physicochemical
How it was run: as §1

[4] = system: Aspartate Aminotransferase (AST); test: Liver enzyme elevation in serum, AST; type: in vivo; conditions: cirRNA (SEQ ID NO: 1) LNPs, BALB/C mice, intravenous 0.5 MPK
Experimental: (§3) 6-8 week old, female BALB/C mice were injected with 0.5 mg*kg-1 of RNA LNPs by intravenous injection. At 2 and 24 hours post injection, animals were bled and sera concentrations of Alanine Aminotransferase (ALT) and Aspartate Aminotransferase (AST) were determined by a blood chemistry analyzer.

[5] = system: MCP-I; test: MCP-I cytokine elevation in serum; type: in vivo; conditions: cirRNA (SEQ ID NO: 1) LNPs, mice
Experimental: 6-8 week old, female BALB/C mice were injected with 0.5 mg*kg-1 of RNA LNPs by intravenous injection. At 2 and 24 hours post injection, animals were bled and sera concentrations of MCP-I were determined by an immunoassay (Luminex).

[6] = system: Hep G2 cells; test: In vitro toxicity (CellTiter-Glo cell viability), Hep G2; type: cell-based;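 note: percent of untreated cells luminescence signal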
How it was run: as §2

[7] = system: Hep G2 cells; test: In vitro expression of firefly-luciferase, Hep G2; type: cell-based
How it was run: (§4)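 First, cells were dosed with RNA lipid nanoparticles encoding firefly luciferase (100 ng/mL). Second, at 72 h they were washed and lysed. Third, lysate luciferase activity was read with a luminometer.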

[8] = system: Alanine Aminotransferase (ALT); test: Liver enzyme elevation in serum, ALT; type: in vivo; conditions: cirRNA (SEQ ID NO: 1) LNPs, BALB/C mice, intravenous 0.5 MPK
Experimental: as §3

[9] = RNA encapsulation efficacy by Quant-IT Ribogreen kit; type: physicochemical; conditions: for Encapsulation Efficiency %: LNP with cirRNA (SEQ ID NO: 1); for Encapsulation Efficiency: LNP with mRNA (SEQ ID NO: 2)
How it was run: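 Dynamic light scattering and zeta potential measurements were run on PBS-dialyzed LNPs, which had been formed by microfluidic mixing at 12 ml/min with final lipid at 1.5 mM to 6 mM. RNA content and percent encapsulation were determined by Ribogreen with and without Triton X-100.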

[10] = system: BALB/C mice; test: Local tolerance determination by footpad injection; type: in vivo; conditions: cirRNA (SEQ ID NO: 1) LNP, 0.175 mg*kg-1 subcutaneous into the footpad, 24 hours post minus prior
Experimental: 6-8 week old, female BALB/C mice were injected with 0.175 mg*kg-1 RNA LNPs by subcutaneous injection into the footpad. Prior to, and 24 hours post injections, injected footpad thickness was determined by a caliper.

[11] = system: BALB/C mice; test: In vivo expression, whole-body luminescence (IVIS)
Experimental: 6-8 week old, female BALB/C mice were injected with 0.05 mg*kg-1 of RNA-LNPs encoding for firefly-luciferase by intravenous injection. At 6 hours post injection, animals were intraperitoneally injected with 15 mg/ml of Luciferin substrate and whole-body luminescence was determined by a bioluminescent in vivo imaging system (IVIS).

[12] = system: RAW 264.7 cells; test: In vitro expression of firefly-luciferase, RAW 264.7; type: cell-based
How it was run: as §4

[13] = cirRNA (SEQ ID NO: 1) LNPs, RAW 264.7 cells
[14] = mRNA (SEQ ID NO: 2) LNP, 1 μg/mL, 72 hours post transfection
[15] = cirRNA (SEQ ID NO: 1) LNPs, Hep G2 cells
[16] = cirRNA (SEQ ID NO: 1) LNPs, firefly-luciferase luminescence, Hep G2 cells
[17] = mRNA (SEQ ID NO: 2) LNP, 100 ng/mL, 72 hours post transfection, luciferase activity
[18] = cirRNA (SEQ ID NO: 1) LNPs, BALB/C mice
[19] = mRNA (SEQ ID NO: 2) LNP, 0.05 mg*kg-1 intravenous, 6 hours post injection
[20] = cirRNA (SEQ ID NO: 1) LNPs, firefly-luciferase luminescence, RAW 264.7 cells

Row | Compound | PDI ([1]; LNP with cirRNA (SEQ ID NO: 1)) | Size ([1]; LNP with cirRNA (SEQ ID NO: 1)) | PDI ([1]; LNP with mRNA (SEQ ID NO: 2)) | Size ([1]; LNP with mRNA (SEQ ID NO: 2)) | In vitro Viability RAW [2, 13] [%] | In vitro Viability RAW [2, 14] [%] | Zeta (mV) ([3]; LNP with cirRNA (SEQ ID NO: 1)) | Zeta (mV) ([3]; LNP with mRNA (SEQ ID NO: 2)) | AST in Sera (IU/L) 2 hours After 0.5 MPK Injection [4] [IU/L] | AST in Sera (IU/L) 24 hours After 0.5 MPK Injection [4] [IU/L] | MCP-I in Sera 2 hours After 0.5 MPK Injection [5] [pg/mL] | MCP-I in Sera 24 hours After 0.5 MPK Injection [5] [pg/mL] | In vitro Viability HepG2 [6, 15] [%] | In vitro Viability HepG2 [6, 14] [%] | In vitro Expression HepG2 [7, 16] | In vitro Expression HepG2 [7, 17] | ALT in Sera (IU/L) 2 hours After 0.5 MPK Injection [8] [IU/L] | ALT in Sera (IU/L) 24 hours After 0.5 MPK Injection [8] [IU/L] | Encapsulation Efficiency % [9] [%] | Encapsulation Efficiency [9] [%] | further results
1 | CCCCC/C=C\C/C=C\CCCCCCCCN(CCCCCC(=O)OCCCCCCCCCCC)CCOC(=O)NCc1ncc[nH]1 [Lipid 90, undecyl 6-((2-((((1H-imidazol-2-yl)methyl)carbamoyl)oxy)ethyl)((9Z,12Z)-octadeca-9,12-dien-1-yl)amino)hexanoate] | 0.06 | 67.68 | 0.06127 | 65.54 | 24 | 96 | 1.34 | 7.6 | 77.50 | 64.70 | 153.05 | 33.08 | 95 | 85 | 1.27E+05 | 2.16E+05 | 40.57 | 37.87 | 87 | 88 | Footpad Thickness (24 h−0 h, mm) [10]: 0.20 mm; In vivo Expression (Whole Body) [11, 18]: 8.80E+07; In vivo Expression (Whole Body) [11, 19]: 2.73E+07; In vitro Expression RAW [12, 20]: 8.50E+04; In vitro Expression RAW [12, 17]: 1.21E+05
2 | CCCCC/C=C\C/C=C\CCCCCCCCN(CCCCCCCC(=O)OC(CCCCCCCC)CCCCCCCC)CCOC(=O)NCCN1CCCCC1 [Lipid 127, heptadecan-9-yl 8-(((9Z,12Z)-octadeca-9,12-dien-1-yl)(2-(((2-(piperidin-1-yl)ethyl)carbamoyl)oxy)ethyl)amino)octanoate] | 0.04 | 71.42 | 0.1822 | 57.31 | 76 | 109 | −3.13 | −1.439 | 161.17 | 91.53 | 301.91 | 128.65 | 99 | 100 | 2.14E+06 | 1.75E+06 | 74.17 | 54.90 | 95 | 87 | Footpad Thickness (24 h−0 h, mm) [10]: 0.94 mm; In vivo Expression (Whole Body) [11, 18]: 1.14E+09; In vivo Expression (Whole Body) [11, 19]: 8.69E+07; In vitro Expression RAW [12, 20]: 4.87E+06; In vitro Expression RAW [12, 17]: 5.53E+05
3 | CCCCC/C=C\C/C=C\CCCCCCCCN(CCCCCCCC(=O)OC(CCCCCCCC)CCCCCCCC)CCOC(=O)NCCN1CCCC1 [Lipid 128, heptadecan-9-yl 8-(((9Z,12Z)-octadeca-9,12-dien-1-yl)(2-(((2-(pyrrolidin-1-yl)ethyl)carbamoyl)oxy)ethyl)amino)octanoate] | 0.1 | 93.54 | 0.1021 | 75.38 | 59 | 92 | 0.282 | 6.141 | 195.53 | 131.30 | 6355.24 | 318.11 | 103 | 94 | 4.01E+06 | 2.16E+07 | 58.17 | 56.00 | 94 | 91 | Footpad Thickness (24 h−0 h, mm) [10]: 0.98 mm; In vivo Expression (Whole Body) [11, 18]: 5.46E+08; In vivo Expression (Whole Body) [11, 19]: 6.98E+08; In vitro Expression RAW [12, 20]: 5.15E+06; In vitro Expression RAW [12, 17]: 1.72E+06
4 | CCCCC/C=C\C/C=C\CCCCCCCCN(CCCCCCCC(=O)OC(CCCCCCCC)CCCCCCCC)CCOC(=O)NCCN(C)C [Lipid 129, heptadecan-9-yl 2-methyl-10-((9Z,12Z)-octadeca-9,12-dien-1-yl)-6-oxo-7-oxa-2,5,10-triazaoctadecan-18-oate] | 0.08 | 88.9 | 0.1768 | 55.55 | 7 | 97 | 0.417 | 0.5475 | 188.97 | 112.03 | 3830.40 | 272.54 | 79 | 100 | 8.56E+06 | 7.03E+06 | 64.50 | 67.87 | 96 | 90 | Footpad Thickness (24 h−0 h, mm) [10]: 1.09 mm; In vivo Expression (Whole Body) [11, 18]: 1.69E+09; In vivo Expression (Whole Body) [11, 19]: 1.42E+08; In vitro Expression RAW [12, 20]: 8.78E+06; In vitro Expression RAW [12, 17]: 1.11E+06
